Test results taken from US20090170195A1, “CURCUMIN-HYALURONAN COMPOUNDS” (KENT STATE UNIVERSITY, priority 2007, published 2009).

Columns and labels:
MDAMB231 = experiment: MTS cytotoxicity assay, MDAMB231; assay type: cell-based; details: Homo sapiens, MDA-MB-231; MDAMB231, MTS cell viability
Protocol: (§1) Cytotoxicity effect of dissociable curcumin-hyaluronan complex, the curcumin-hyaluronan complex having a substantially non-acid labile covalent bond and free curcumin was detected by MTS (3-(4,5-dimethylthiazol-2yl)-5-(3-[…]-2-(4-sulfophenyl)-2H-tetrazolium) assay. The formazan color intensity was measured directly from 96 well plates in terms of absorbance at 490 nm and 630 nm using a 96-well multi-scanner (MRX Revelation; Dynex Technologies). For calculating cell viability (%) all the appropriate correction was made and the IC50 values were determined from sigmoidal fitting of the data. FIGS. 3-5 represent confocal microscopy images representing the uptake of curcumin and the dissociable complex into the C-13, NIH3T3 and RA-8001 cell lines.

NIH3T3 = experiment: MTS cytotoxicity assay, NIH3T3; assay type: cell-based; details: Mus musculus; NIH3T3, MTS cell viability
Protocol: as §1

MCF7 = details: from Simon et al., Cancer Lett., (1998), 129, 111; cited from earlier work
MCF7 (Dox resistance) = experiment: MTS cytotoxicity assay, MCF7 (Dox resistance); assay type: cell-based; details: Homo sapiens, MTS cell viability
Protocol: as §1

RA-8001 = experiment: MTS cytotoxicity assay, RA-8001; assay type: cell-based; details: Homo sapiens; RA-8001, MTS cell viability
Protocol: as §1

C-13 = experiment: MTS cytotoxicity assay, C-13; assay type: cell-based; details: Homo sapiens, C13; C-13, MTS cell viability
Protocol: as §1

COc1cc(/C=C/C(=O)CC(=O)/C=C/c2ccc(O)c(OC)c2)ccc1O [Curcumin]
IC50 (MDAMB231): 27.5 ± 3.36 µM
IC50 (NIH3T3): 23.9 ± 3.19 µM
IC50 (MCF7): 15 µM
IC50 (MCF7 (Dox resistance)): 27.4 ± 0.892 µM
IC50 (RA-8001): 11.1 ± 2.3 µM
IC50 (C-13): 22.2 µM
